# Laboratory results: patent publication US11117876B2, “Crystalline form of ozanimod hydrochloride, and processes for preparation thereof” (RECEPTOS, LLC, priority 2017, dated 2021)
# “Also recorded” adds a separate entry of the source. Structures can show the parent of a compound that is named as a salt.
# Legend:
# Assay type in all cases: physicochemical
# [1] = Long-term and accelerated stability of Form CS2 (XRPD and HPLC purity after storage); settings: 7 weeks, open dish, hydrochloride
# Excerpt: X-ray powder diffraction pattern in the present disclosure was acquired by a Panalytical Empyrean X-ray powder diffractometer. The parameters of the X-ray powder diffraction method of the present disclosure were as follows: • X-ray Reflection: Cu, Kα. • Kα1 (Å): 1.540598; Kα2 (ÅA): 1.544426 • Kα2/Kα1 intensity ratio: 0.50 • Voltage: 45 (kV) • Current: 40 (mA) • Scan range: from 3.0 to 40.0 degree
# High Performance Liquid Chromatography (HPLC) data for purity test in example 4 of the present disclosure were collected from an Agilent 1260 with UV Variable Wavelength Detector (VWD). The HPLC method parameters are as follows: • Column: Waters XBridge C18 150×4.6 mm, 5 μm • Mobile Phase: A: 0.1% TFA in H2O • B: 0.1% TFA in Acetonitrile
# • Flow rate: 1.0 mL/min • Injection Volume: 10 μL • Detection wavelength: 270 nm • Column Temperature: 40° C. • Diluent: MeOH/THF (v/v, 6/4)
# Three solid samples of Form CS2 were stored under the conditions of 25° C./60% RH, 40° C./75% RH and 60° C./75% RH for 7 weeks in open dishes. XRPD of the samples was tested and the physical stability results are shown in FIG. 7 (from top to bottom: XRPD pattern of Form CS2 before and after being stored under the conditions of 25° C./60% RH, 40° C./75% RH and 60° C./75% RH for 7 weeks). Chemical purity of Form CS2 was tested after stored under the conditions of 25° C./60% RH and 40° C./75% RH for 7 weeks and the results are shown in Table 4.
# [2] = Dynamic solubility of Form CS2 in SGF, FeSSIF, FaSSIF and water; settings: for solubility at 1 h / solubility at 4 h / solubility at 24 h: thermodynamic from solid
# Description: High Performance Liquid Chromatography (HPLC) data for solubility test in example 5 of the present disclosure were collected from an Agilent 1100 with Diode Array Detector (DAD). The HPLC method parameters are as follows: • Column: L005# Waters Xbridge C18, 150×4.6 mm, 5 μm • Mobile Phase: A: 0.1% TFA in H2O • B: 0.1% TFA in Acetonitrile
# • Flow rate: 1.0 ml/min • Injection Volume: 5 μl • Detection wavelength: 270 nm • Column Temperature: 40° C. • Diluent: MeOH/THF (v/v, 6/4)
# Simulated gastrointestinal fluids such as SGF (Simulated gastric fluids), FaSSIF (Fasted state simulated intestinal fluids) and FeSSIF (Fed state simulated intestinal fluids) are biorelevant media. Solubility in such media is closer to that in human environment, which can reflect the effects of gastrointestinal environment on drug release better.
# 20 mg of Form CS2 was suspended into 1.5 mL of SGF, 1.5 mL of […], 1.5 mL of […] and 1.5 mL of water to get saturated solutions. After equilibrated for 1 h, 4 h and 24 h, concentrations (mg/mL) of the saturated solutions were measured by HPLC.
# [3] = Mechanical stability of Form CS2 (manual grinding, XRPD); settings: ground manually for 5 minutes in a mortar
# Description: Solid sample of Form CS2 was ground manually for 5 minutes in a mortar. The XRPD comparison pattern of Form CS2 before and after grinding is depicted in FIG. 8.
# [4] = Hygroscopicity of Form CS2 by dynamic vapor sorption (DVS); settings: for Weight gain under 80% RH: 25° C., hydrochloride
# Description: Dynamic Vapor Sorption (DVS) is measured via a SMS (Surface Measurement Systems Ltd.) intrinsic DVS instrument. Its control software is DVS-Intrinsic control software, and its analysis software is DVS-Intrinsic Analysis software. Typical Parameters for DVS test are as follows: • Temperature: 25° C. • Gas and flow rate: N2, 200 mL/min • dm/dt: 0.002%/min • RH range: 0% RH to 95% RH
# Dynamic vapor sorption (DVS) was applied to test hygroscopicity of Form CS2 with about 10 mg of sample. The DVS plot of Form CS2 is depicted in FIG. 9.
# [5] = Particle size distribution of Form CS2 (laser particle size analyzer); settings: wet mode, Isopar G
# Description: The particle size distribution data in the present disclosure were acquired by an S3500 laser particle size analyzer of Microtrac. Microtrac S3500 is equipped with an SDC (Sample Delivery Controller). The test is carried out in wet mode, and the dispersion medium is Isopar G. The parameters are as follows:
# 10-30 mg of Form CS2 and 10 mL of Isopar G (containing 0.2% lecithin) were mixed thoroughly and then transferred into the SDC. The measurement was started when the sample amount indicator is in appropriate position. The average particle diameter calculated by volume, the diameter at which 10% mass is comprised of smaller particles, the diameter at which 50% mass is comprised of smaller particles and the diameter at which 90% mass is comprised of smaller particles were obtained in particle size distribution test.
# Explanation of the abbreviations used in the present invention is as follows: • MV: Average particle diameter calculated by volume. • D10: the size in microns below which 10 percent of the particles reside on a volume basis. • D50: the size in microns below which 50 percent of the particles reside on a volume basis, also known as the median diameter. • D90: the size in microns below which 90 percent of the particles reside on a volume basis.
# [6] = FaSSIF (fasted state simulated intestinal fluid), FaSSIF
# [7] = FeSSIF (fed state simulated intestinal fluid), FeSSIF
compound,measurement,setting,value
"CC(C)Oc1ccc(-c2nc(-c3cccc4c3CC[C@@H]4NCCO)no2)cc1C#N [Form CS2, ozanimod hydrochloride]",Crystalline form change after storage (XRPD),[1]; 25° C./60% RH,no form change; also recorded: doesn't change
same,Crystalline form change after storage (XRPD),[1]; 40° C./75% RH,no form change; also recorded: doesn't change
same,Crystalline form change after storage (XRPD),[1]; 60° C./75% RH,no form change; also recorded: doesn't change
same,solubility at 1 h,[2]; [6],3000 µg/mL
same,solubility at 4 h,"[2]; FaSSIF (fasted state simulated intestinal fluid), FaSSIF, 4 h",3000 µg/mL
same,solubility at 24 h,[2]; [6],3100 µg/mL
same,solubility at 1 h,[2]; [7],300 µg/mL
same,solubility at 4 h,"[2]; FeSSIF (fed state simulated intestinal fluid), FeSSIF, 4 h",280 µg/mL
same,solubility at 24 h,[2]; [7],320 µg/mL
same,solubility at 24 h,"[2]; SGF (simulated gastric fluid), simulated gastric fluid, SGF",240 µg/mL
same,Solubility,"[2]; SGF, 4 h",210 µg/mL
same,Solubility (in words),"[2]; in SGF, FeSSIF, FaSSIF and H2O",high
same,solubility at 4 h,"[2]; water, H2O, 4 h",2200 µg/mL
same,solubility at 24 h,"[2]; water, H2O",2400 µg/mL
same,Crystalline form change after grinding (XRPD),[3],doesn't change
same,Weight gain under 80% RH,[4],2.34%
same,Weight gain under 80% RH,[4]; listed as Form CS2 of ozanimod hydrochloride,2.34%
same,Hygroscopicity (in words),[4]; 80% RH,low
same,D10,[5],7.6 μm
same,D50,[5],44.90 μm
same,D90,[5],149.4 μm
same,Particle size distribution (in words),[5],uniform
same,MV (average particle diameter calculated by volume),[5]; hydrochloride,about 64.22 μm
same,MV (average particle diameter calculated by volume),"[5]; listed as CS2, hydrochloride",64.22 μm
